How the values were obtained:
aspirin-induced ulcer = experiment: Effect on aspirin-induced ulcer (Brodie and Chase method); assay type: in vivo, rats of the Donryu strain (male); conditions: orally, rats, 15 min before 100 mg/kg aspirin, 4 h after aspirin
Method: According to a method reported by Brodie and Chase [Gastroenterology 53, 604 (1967)], the anti-ulcer effect was determined. Five male rats of the Donryu strain (body weight 170 to 200 g) were used for each of the control and test compound groups. After being fasted for 24 hours, the rats were orally given certain concentrations of the test compounds and 15 minutes later given orally 100 mg/kg of aspirin (Sanko Pharmaceutical Inc). Four hours after the aspirin administration, the stomach was extracted and expanded with 10 ml of 0.5% formalin. An ulcer index was calculated from the total area of ulceration for the rats of the treated and control groups. The inhibition rate was calculated by comparing the ulcer indices of both groups.

[1] = test system: blood platelet aggregation; conditions: GB 2012265A, U.S. Pat. No. 4,238,414; cited from earlier work
[2] = GB 2012265A, U.S. Pat. No. 4,238,414; cited from earlier work
[3] = Acute toxicity testing, intravenous; assay type: in vivo; conditions: intravenously, 10 mg per kg of body weight, five rats

SMILES | Inhibition Rate (%) (aspirin-induced ulcer; 30 γ/kg (γ = 10^-6 g)) | Inhibition Rate (%) (aspirin-induced ulcer; 100 γ/kg (γ = 10^-6 g)) | other results
C=CCCCC(C)(C)[C@H](O)/C=C/[C@@H]1[C@H]2C/C(=C/CCCC(=O)O)C[C@H]2C[C@H]1O [Preparative Example 3, 16,16-Dimethyl-20-methylenecarbacyclin] | 92% |  | 
CCCCC[C@H](O)/C=C/[C@@H]1[C@H]2C/C(=C/CCCC(=O)O)C[C@H]2C[C@H]1O [Reference Compound A, Carbacyclin] |  | 0% | Inhibition Rate (%) (aspirin-induced ulcer; 300 γ/kg (γ = 10^-6 g)): 0%; inhibition of blood platelet aggregation [1]: inhibition of blood platelet aggregation; chemical stability [2]: chemically stable
CC(C)=CCCC(C)C[C@H](O)/C=C/[C@@H]1[C@H]2C/C(=C/CCCC(=O)O)C[C@H]2C[C@H]1O (stereo partly drawn) [Reference Compound D, 17-Methyl-20-isopropylidenecarbacyclin] | 30% | 98% | 
CC(C)=CCCCC(C)[C@H](O)/C=C/[C@@H]1[C@H]2C/C(=C/CCCC(=O)O)C[C@H]2C[C@H]1O (stereo partly drawn) [Preparative Example 6, 16-Methyl-20-isopropylidenecarbacyclin] | 84% |  | 
C=CCCCC(C)[C@H](O)/C=C/[C@@H]1[C@H]2C/C(=C/CCCC(=O)O)C[C@H]2C[C@H]1O (stereo partly drawn) [Preparative Example 1, 16-Methyl-20-methylenecarbacyclin] | 95% | 98% | Inhibition Rate (%) (aspirin-induced ulcer; 10 γ/kg (γ = 10^-6 g)): 45%; deaths (acute toxicity) [3]: no deaths occurred
CC(C)=CCCCC[C@H](O)/C=C/[C@@H]1[C@H]2C/C(=C/CCCC(=O)O)C[C@H]2C[C@H]1O [Reference Compound C, 20-Isopropylidenecarbacyclin] |  |  | Inhibition Rate (%) (aspirin-induced ulcer; 300 γ/kg (γ = 10^-6 g)): 4%
CCC=CC[C@H](O)/C=C/[C@@H]1[C@H]2C/C(=C/CCCC(=O)O)C[C@H]2C[C@H]1O [Reference Compound B, 17,18-Didehydrocarbacyclin] | 15% | 47% | 
